Results on three compounds are retold here after PMC2662459, “Developmental Toxicity of Ochratoxin A in Rat Embryo Midbrain Micromass Cultures” (International Journal of Molecular Sciences, 2008).

Converted amounts (≈) assume the structure as drawn. Counter-ions that a name gives are not always drawn. Like-named read-outs stand apart in the source and are kept apart here.

Data set [1] deals with βIII tubulin expression (neurons in early stage of development). The data set can be described thus: Differentiation, immunoenzymatic determination of βIII-tubulin expression. Format: cell-based, rat. The following applies: for Inhibition of differentiation, ID50: Expression of βIII tubulin (OD, 450 nm): five days exposure, mean±SD from 3 independent experiments. The method, then: (§1) This study was carried out according to compliance with bioethical principles. Wistar albino rats were housed under standard laboratory condition of lighting (12 h dark/12 h light), temperature (20 ± 2 °C), and relative humidity (50 – 60%) with free access to commercial feed (Murigan) and tap water. Animals (10–12 week old) were mated overnight and the appearance of a vaginal plug on the next morning was considered as day one of pregnancy. Rat embryos were collected on day 13 of gestation. Procedures were followed essentially as described in INVITTOX Protocol No. 114 [23].
(§2) Tissues were pooled from a number of embryos, washed and incubated for 20 min at 37 °C in sequence in Earle’s balanced salt solution calcium and magnesium-free (CMF, GIBCO), and 1% trypsin (GIBCO) in CMF. Then the tissues were washed in CMF and culture medium (Ham’s F-12 nutrient mixture: foetal bovine serum: L-glutamine: penicillin/streptomycin - 88:10:1:1 v/v – all materials were from GIBCO). A single cell suspension was ensured by mechanical dissociation followed by passing the suspension through sterile 10 μm nylon mesh. Viable cells density was assessed by trypan blue exclusion assay using Bürker’s haemocytometer.
(§3) High-cell-density cultures were set up carefully as a 5–10 μL drop in the centre of each well of 96-well fibronectin coated microplate (BECTON DICKINSON), so that number of cells /well was 5 × 10^4. After 2 h incubation (37°C, 5% CO2) the cells were exposed to different concentrations of tested compounds and incubated five days. […]
(§4) To indicate the target cells damaged, immunofluorescent (IF) and immunoenzymatic (IE) staining was performed. […] IF staining fluorescence was examined using a fluorescent microscope (λ = 490 nm). In IE staining, a substrate (3,3’,5,5’-tetramethylbenzidine, SIGMA) was added (100 μL/well) and reaction was evaluated for 30 min at room temperature. […] The expression level of particular proteins was determined by measuring optical density at 450 nm. […]

Data set [2] relates to rat embryo midbrain micromass cultures. Format: cell-based. As to the method:
(§5) The values of drug concentration, which inhibited cells viability by 50% (IC50) and reduced differentiation by 50% (ID50) when compared to unexposed control cells, were calculated according to Hill’s equation (sigmoidal model of concentration-response curve). Statistically significant differences between mean values obtained in immunoenzymatic analysis were determined based on analysis of variance (ANOVA) followed by Tukey – Kramer post-hoc test. Values of P < 0.05 were considered as statistically significant. All calculations were done using LSW Data Analysis Toolbox ver. 1.1.1. (MDL® Information Systems, Inc.) in Microsoft Excel 2000 spreadsheet and Kyplot software (Koichi Yoshioka, version 2.0 beta 4). In order to classify embryotoxic potential the mean inhibition concentrations for differentiation (ID50) of test chemical was used and the biostatistically based prediction model (PM) was applied. It is based on the linear discriminate analysis of three functions: function I: 6.65 × log (ID50)–9.49; function II: 6.16 × log (ID50)–8.29; function III: –1.31 × log (ID50)–1.42. The function providing the highest value was used to determine the class of embryotoxicity (class 1 – non-embryotoxic, class 2 – weakly embryotoxic, class 3 – strongly embryotoxic).

Data set [3] has as its system MAP2 expression (neurons in late stage of development). The data set can be described thus: Differentiation, immunoenzymatic determination of MAP2 expression. Conditions: for Inhibition of differentiation, ID50: Expression of MAP2 (OD, 450 nm): five days exposure, mean±SD from 3 independent experiments. Format: cell-based, rat. As to the method:
as §1, §2, §3, §4

Data set [4] deals with GFAP expression (astrocytes). Kind of data set: Differentiation, immunoenzymatic determination of GFAP expression. Format: cell-based, rat. Conditions: for Inhibition of differentiation, ID50: Expression of GFAP (OD, 450 nm): five days exposure, mean±SD from 3 independent experiments. As to the method: as §1, §2, §3, §4
The nature of data set [5]: in vitro. Format: cell-based. Conditions: Wistar albino, rat. The method, then:
as §1
Tissues were pooled from a number of embryos, washed and incubated for 20 min at 37 °C in sequence in Earle’s balanced salt solution calcium and magnesium-free (CMF, GIBCO), and 1% trypsin (GIBCO) in CMF. Then the tissues were washed in CMF and culture medium (Ham’s F-12 nutrient mixture: foetal bovine serum: L-glutamine: penicillin/streptomycin - 88:10:1:1 v/v – all materials were from GIBCO). […] Viable cells density was assessed by trypan blue exclusion assay using Bürker’s haemocytometer. […]
Cytotoxicity was quantified using neutral red uptake test (NRU). […] The eluted stain intensity (optical density, OD) was measured at 540 nm following at least 2 h incubation. Surviving cell number was directly related to the absorbance of the eluted stain. […]

Data set [6] concerns mice offspring brain. The following applies: three month mice offspring exposed prenatally; cited from earlier work.
The test system of data set [7] is neurons and astrocytes of ventral mesencephalon. The following applies: protein and DNA synthesis, rat embryo brain aged 15–16 days, cited from earlier work.
The test system of data set [8] is foetuses of pregnant rats. Conditions: single oral dose; cited from earlier work.
Data set [9] concerns rat embryo midbrain micromass cultures (neurospheres). Kind of data set: Differentiation, computerised image analysis of haematoxylin stained neurospheres. Format: cell-based. The method, then: as §1, §2
High-cell-density cultures were set up carefully as a 5–10 μL drop in the centre of each well of 96-well fibronectin coated microplate (BECTON DICKINSON), so that number of cells /well was 5 × 10^4. After 2 h incubation (37°C, 5% CO2) the cells were exposed to different concentrations of tested compounds and incubated five days. Then dual assessment i.e. cytotoxicity and an impact of tested compound on cells differentiation (embryotoxicity) were done in the same cultures.
After removing the eluted solution, the cells were fixed in 10% formaldehyde for 20 min and stained (approximately 10 s) with Gill’s haematoxylin. Morphometric analysis was performed on digitised images of cells taken with Nikon SMZ stereoscopic microscope linked to Panasonic CCD BP-KR 222E colour camera. The number of neurospheres (containing differentiated neural cells) was counted and their total and individual area was measured using computer image analysis software (LUCIA Measurement System).
as §5, with “It is based on the linear discriminate analysis of three functions: function I: 6.65 × log (ID50)–9.49; function II: 6.16 × log (ID50)–8.29; function III: –1.31 × log (ID50)–1.42.” left out

The test system of data set [10] is neurons and astrocytes of cerebellum. The following applies: protein and DNA synthesis, rat embryo brain aged 15–16 days, cited from earlier work.
Setting [11] is: five days exposure, computerised image analysis, mean±SD from 3 independent experiments.

With `O=c1[nH]cc(F)c(=O)[nH]1` [5-FU, 5-fluorouracil, reference compound], the “Inhibition of differentiation, ID50: Expression of βIII tubulin (OD, 450 nm)” value in [1] turned out to be 0.14 ± 0.010 µg/mL. Also, the “Class of embryotoxicity (prediction model)” value (“Class … (prediction model)” for short) in data set [2] (rat) is given as “class 3”. In data set [3], the “Inhibition of differentiation, ID50: Expression of MAP2 (OD, 450 nm)” value amounted to 0.16 ± 0.010 µg/mL. Moreover, in data set [4], the “Inhibition of differentiation, ID50: Expression of GFAP (OD, 450 nm)” value is 0.18 ± 0.012 µg/mL. The IC50 in data set [5] was 0.15 ± 0.01 µg/mL (≈ 1.15 µM).
In the case of `C[C@@H]1Cc2c(Cl)cc(C(=O)N[C@@H](Cc3ccccc3)C(=O)O)c(O)c2C(=O)O1` [OTA, ochratoxin A], in data set [6], the “Tissue weight and DNA content, cerebral hemispheres” value is 80 % of control; the “Tissue weight and DNA content, remainder of the brain” value is reported as 90 % of control. In [1] (NRU IC50 over ID50), the “IC50/ID50 ratio: βIII tubulin” value was found to be 0.5. In data set [1], the “Inhibition of differentiation, ID50: Expression of βIII tubulin (OD, 450 nm)” value came to 4.84 ± 0.581 µg/mL. Also, in data set [7], the “Median inhibition concentration, astrocytes ventral mesencephalon” value is approximately 16.2 ± 2.15 µg/mL and the “Median inhibition concentration, neurons ventral mesencephalon” value is approximately 5.6 ± 0.40 µg/mL. Besides, the IC50 in [7] (read-out: Median inhibition concentration, astrocytes ventral mesencephalon) is approximately 40 µM. Besides, the IC50 in [7] (read-out: Median inhibition concentration, neurons ventral mesencephalon) is approximately 14 µM. The “IC50/ID50 ratio, all endpoints” value in data set [2] (all differentiation endpoints) is less than 2. The “ID50, all endpoints of differentiation” value in [2] (for all endpoints) is less than 10 µg/mL. The “Class … (prediction model)” value in data set [2] (function with highest value from ID50) is recorded as “class 3”. For the same compound, in [8], the “Minimum effective teratogenic dose” value is recorded as 2.75 mg/kg b.w. Also, in data set [9] (NRU IC50 over ID50), the “IC50/ID50 ratio: Number of neurospheres” value is 0.7, the “IC50/ID50 ratio: Particular area of neurospheres” value is given as 1.9 and the “IC50/ID50 ratio: Total area of neurospheres” value amounted to 1.1. For the same compound, in data set [9] (setting [11]), the “Inhibition of differentiation, ID50: Number of neurospheres” value came out at 3.40 ± 1.100 µg/mL; the “Inhibition of differentiation, ID50: Particular area of neurospheres” value turned out to be 1.29 ± 0.923 µg/mL; the “Inhibition of differentiation, ID50: Total area of neurospheres” value was 2.19 ± 0.245 µg/mL. Moreover, the “Differentiated cells after exposure to the two highest concentrations” value in data set [9] (two highest concentrations, 5 days, haematoxylin staining) is listed as “no differentiated cells were observed”. In addition, the “IC50/ID50 ratio: MAP2” value in [3] (NRU IC50 over ID50) was 0.6. Further, the “Inhibition of differentiation, ID50: Expression of MAP2 (OD, 450 nm)” value in [3] worked out at 3.90 ± 0.350 µg/mL. Also, the “IC50/ID50 ratio: GFAP” value in data set [4] (NRU IC50 over ID50) amounted to 0.5. The “Inhibition of differentiation, ID50: Expression of GFAP (OD, 450 nm)” value in data set [4] was 4.87 ± 0.351 µg/mL. Moreover, the IC50 at 5 days in data set [5] (five days exposure, mean±SD from 3 independent experiments, read-out: Cytotoxicity IC50 (Viability, Neutral Red OD, 540 nm)) is 2.52 ± 0.062 µg/mL (≈ 6.24 µM). For the same compound, in data set [10], the “Median inhibition concentration, astrocytes cerebellum” value is approximately 27.9 ± 3.6 µg/mL and the “Median inhibition concentration, neurons cerebellum” value is approximately 9.7 ± 2.8 µg/mL. For the same compound, the IC50 in data set [10] (read-out: Median inhibition concentration, astrocytes cerebellum) was approximately 69 µM. The IC50 in [10] (read-out: Median inhibition concentration, neurons cerebellum) was approximately 24 µM.
For `CC1(C)S[C@@H]2[C@H](NC(=O)Cc3ccccc3)C(=O)N2[C@H]1C(=O)O` [Pen-G, Penicillin G sodium salt, reference compound], the “Embryotoxicity at fixed concentration” value in data set [2] is “not embryotoxic”. The “Class … (prediction model)” value in [2] (rat) is listed as “class 1”.
